Results from US20230278972A1, “SUBSTITUTED HALOALKYL SULFONANILIDE HERBICIDES” (FMC Corporation, priority 2020, published 2023).

Legend:
Format in all cases: in vivo
[1] = system: Pigweed, Palmer (palmer amaranth, palmer pigweed, Amaranthus palmeri); assay: Test A1 postemergence, Pigweed, Palmer; conditions: Postemergence
Procedure, shortened: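 Both timings started from seed in a loam-sand blend. Preemergence pots got a directed soil application immediately; postemergence pots were sprayed when seedlings had one or two leaves and stood 2–10 cm. Each compound was prepared in a non-phytotoxic solvent plus surfactant.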

[2] = system: Foxtail, Giant (giant foxtail, Setaria faberi); assay: Test A1 postemergence, Foxtail, Giant; conditions: Postemergence
Procedure, shortened: (§1)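 Plants were grown in a loam soil/sand blend, with test chemicals formulated in a non-phytotoxic solvent mixture containing surfactant. Preemergence treatment (corn) was a directed soil spray at planting. Postemergence treatment was applied to plants 2 to 10 cm tall at the one- to two-leaf stage.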

[3] = system: Foxtail, Giant (giant foxtail, Setaria faberi); assay: Test A1 preemergence, Foxtail, Giant
Procedure, shortened: (§2)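 Herbicidal response was scored on plants treated either preemergence, by directed spray onto soil of a loam–sand blend after sowing, or postemergence on potted plants at the one- to two-leaf stage, 2–10 cm high. Test chemicals were carried in a non-phytotoxic solvent mix with surfactant.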

[4] = system: kochia (Bassia scoparia); assay: Test A1 postemergence, kochia; conditions: Postemergence
Procedure, shortened: as §1

[5] = system: ragweed (common ragweed, Ambrosia artemisiifolia); assay: Test A1 preemergence, ragweed
Procedure, shortened: as §2

[6] = system: Oat, Wild (wild oat, Avena fatua); assay: Test A1 preemergence, Oat, Wild
Procedure, shortened: as §2

[7] = system: rice (Oryza sativa); assay: Test B1 flooded paddy test, rice; conditions: 250 g ai/ha, Flood, applied to paddy water, 2-leaf stage, visually evaluated after 10 to 14 days
From the text: (§3) A dash (-) response means no test result.

[8] = system: barnyardgrass (Echinochloa crus-galli); assay: Test B1 flooded paddy test, barnyardgrass; conditions: 250 g ai/ha, Flood, applied to paddy water, 2-leaf stage, visually evaluated after 10 to 14 days
From the text: as §3

[9] = system: wheat (Triticum aestivum); assay: Test A1 postemergence, wheat; conditions: Postemergence
Procedure, shortened: as §1

[10] = 31 g ai/ha, 0 to 100 scale (0 no effect, 100 complete control), 10 days
[11] = 31 g ai/ha, 0 to 100 scale (0 no effect, 100 complete control)
[12] = 125 g ai/ha, 0 to 100 scale, 0 no effect, 100 complete control

In the case of Cc1c(C(=O)N2CCOCC2)cc(N(COC(=O)C(C)(C)C)S(=O)(=O)C(F)(F)F)c(C)c1C [Compound 324, [[(Trifluoromethyl)sulfonyl][2,3,4-trimethyl-5-(4-morpholinylcarbonyl)phenyl]amino]methyl 2,2-dimethylpropanoate], the “Plant response rating, Pigweed, Palmer” value [1, 10] is reported as 30, the “Plant response rating, Pigweed, Palmer” value ([1]; 125 g ai/ha, 0 to 100 scale) is reported as 70 and the “Plant response rating, Foxtail, Giant” value [2, 10] is reported as 20. The “Plant response rating, Foxtail, Giant” value ([2]; 125 g ai/ha, 0 to 100 scale) was 90, the “Plant response rating, Foxtail, Giant” value [3, 11] was 90 and the “Plant response rating, Foxtail, Giant” value [3, 12] was 100. The “Plant response rating, Kochia” value [4, 10] was 30, the “Plant response rating, Kochia” value ([4]; 125 g ai/ha, 0 to 100 scale) was 50 and the “Plant response rating, Ragweed” value [5, 11] was 20. For the same compound, the “Plant response rating, Ragweed” value [5, 12] was 80, the “Plant response rating, Oat, Wild” value [6, 11] was 20 and the “Plant response rating, Oat, Wild” value [6, 12] was 40. For the same compound, the “Plant response rating, Rice (0 to 100 scale, 0 is no effect, 100 is complete control)” value [7] was 0, the “Plant response rating, Barnyardgrass (0 to 100 scale, 0 is no effect, 100 is complete control)” value [8] was 90 and the “Plant response rating, Wheat” value [9, 10] was 0. The “Plant response rating, Wheat” value ([9]; 125 g ai/ha, 0 to 100 scale) was 30.
In the case of CCOC(=O)N(c1cc(C(=O)N2CCOCC2)c(C)c(C)c1C)S(=O)(=O)C(F)(F)F [Compound 325], the “Plant response rating, Pigweed, Palmer” value [1, 10] is reported as 30, the “Plant response rating, Pigweed, Palmer” value ([1]; 125 g ai/ha, 0 to 100 scale) is reported as 90 and the “Plant response rating, Foxtail, Giant” value [2, 10] is reported as 30. The “Plant response rating, Foxtail, Giant” value ([2]; 125 g ai/ha, 0 to 100 scale) was 90, the “Plant response rating, Foxtail, Giant” value [3, 11] was 30 and the “Plant response rating, Foxtail, Giant” value [3, 12] was 100. The “Plant response rating, Kochia” value [4, 10] was 20, the “Plant response rating, Kochia” value ([4]; 125 g ai/ha, 0 to 100 scale) was 50 and the “Plant response rating, Ragweed” value [5, 11] was 50. The “Plant response rating, Ragweed” value [5, 12] was 90, the “Plant response rating, Oat, Wild” value [6, 11] was 0 and the “Plant response rating, Oat, Wild” value [6, 12] was 70. The “Plant response rating, Rice (0 to 100 scale, 0 is no effect, 100 is complete control)” value [7] was 15, the “Plant response rating, Barnyardgrass (0 to 100 scale, 0 is no effect, 100 is complete control)” value [8] was 95 and the “Plant response rating, Wheat” value [9, 10] was 30. The “Plant response rating, Wheat” value ([9]; 125 g ai/ha, 0 to 100 scale) was 50.
With Cc1c(NS(=O)(=O)C(F)(F)F)cc(C(=O)N2CCCCC2)c(C)c1C [Compound 326] the “Plant response rating, Pigweed, Palmer” value [1, 10] was 40, the “Plant response rating, Pigweed, Palmer” value ([1]; 125 g ai/ha, 0 to 100 scale) was 80 and the “Plant response rating, Foxtail, Giant” value [2, 10] was 10. The “Plant response rating, Foxtail, Giant” value ([2]; 125 g ai/ha, 0 to 100 scale) was 30, the “Plant response rating, Foxtail, Giant” value [3, 11] was 100 and the “Plant response rating, Foxtail, Giant” value [3, 12] was 100. The “Plant response rating, Kochia” value [4, 10] was 30, the “Plant response rating, Kochia” value ([4]; 125 g ai/ha, 0 to 100 scale) was 70 and the “Plant response rating, Ragweed” value [5, 11] was 90. The “Plant response rating, Ragweed” value [5, 12] was 90, the “Plant response rating, Oat, Wild” value [6, 11] was 10 and the “Plant response rating, Oat, Wild” value [6, 12] was 10. For the same compound, the “Plant response rating, Rice (0 to 100 scale, 0 is no effect, 100 is complete control)” value [7] was 0, the “Plant response rating, Barnyardgrass (0 to 100 scale, 0 is no effect, 100 is complete control)” value [8] was 0 and the “Plant response rating, Wheat” value [9, 10] was 0. For the same compound, the “Plant response rating, Wheat” value ([9]; 125 g ai/ha, 0 to 100 scale) was 0.
In the case of Cc1c(NS(=O)(=O)C(F)(F)F)cc(C(=O)N2CC(C)OC(C)C2)c(C)c1C (centres unmarked) [Compound 328], the “Plant response rating, Pigweed, Palmer” value [1, 10] is reported as 30, the “Plant response rating, Pigweed, Palmer” value ([1]; 125 g ai/ha, 0 to 100 scale) is reported as 40 and the “Plant response rating, Foxtail, Giant” value [2, 10] is reported as 0. The “Plant response rating, Foxtail, Giant” value ([2]; 125 g ai/ha, 0 to 100 scale) was 70, the “Plant response rating, Foxtail, Giant” value [3, 11] was 20 and the “Plant response rating, Foxtail, Giant” value [3, 12] was 100. For the same compound, the “Plant response rating, Kochia” value [4, 10] was 10, the “Plant response rating, Kochia” value ([4]; 125 g ai/ha, 0 to 100 scale) was 60 and the “Plant response rating, Ragweed” value [5, 11] was 10. The “Plant response rating, Ragweed” value [5, 12] was 80, the “Plant response rating, Oat, Wild” value [6, 11] was 0 and the “Plant response rating, Oat, Wild” value [6, 12] was 30. For the same compound, the “Plant response rating, Rice (0 to 100 scale, 0 is no effect, 100 is complete control)” value [7] was 0, the “Plant response rating, Barnyardgrass (0 to 100 scale, 0 is no effect, 100 is complete control)” value [8] was 40 and the “Plant response rating, Wheat” value [9, 10] was 0. For the same compound, the “Plant response rating, Wheat” value ([9]; 125 g ai/ha, 0 to 100 scale) was 50.
With CCOC(=O)N(c1cc(C(=O)N2CCCCC2)c(C)c(C)c1C)S(=O)(=O)C(F)(F)F [Compound 330, Ethyl N-[(trifluoromethyl)sulfonyl]-N-[2,3,4-trimethyl-5-(1-piperidinylcarbonyl)phenyl]carbamate] the “Plant response rating, Pigweed, Palmer” value [1, 10] was 0, the “Plant response rating, Pigweed, Palmer” value ([1]; 125 g ai/ha, 0 to 100 scale) was 50 and the “Plant response rating, Foxtail, Giant” value [2, 10] was 20. The “Plant response rating, Foxtail, Giant” value ([2]; 125 g ai/ha, 0 to 100 scale) was 80, the “Plant response rating, Foxtail, Giant” value [3, 11] was 80 and the “Plant response rating, Foxtail, Giant” value [3, 12] was 100. For the same compound, the “Plant response rating, Kochia” value [4, 10] was 10, the “Plant response rating, Kochia” value ([4]; 125 g ai/ha, 0 to 100 scale) was 50 and the “Plant response rating, Ragweed” value [5, 11] was 40. The “Plant response rating, Ragweed” value [5, 12] was 70, the “Plant response rating, Oat, Wild” value [6, 11] was 0 and the “Plant response rating, Oat, Wild” value [6, 12] was 20. For the same compound, the “Plant response rating, Rice (0 to 100 scale, 0 is no effect, 100 is complete control)” value [7] was 0, the “Plant response rating, Barnyardgrass (0 to 100 scale, 0 is no effect, 100 is complete control)” value [8] was 95 and the “Plant response rating, Wheat” value [9, 10] was 0. The “Plant response rating, Wheat” value ([9]; 125 g ai/ha, 0 to 100 scale) was 30.
